What was measured:
[1] = system: C57 mice fed with 10% lard and 5% fructose; test: Liver pathology (HE, Oil red O staining, SAF scoring) in mice on high-fat and high-sugar diet; format: in vivo; details: vs high-fat group
Method: (§1) C57 mice were selected and fed with feedstuffs that were added with 10% lard and 5% fructose. After 12 weeks, the mice suffered from liver metabolism disruption, generated insulin resistance, and were stuck in mitochondrial dysfunction in liver cells, thus resulting in a decrease in fatty acid β-oxidation capacity and fat accumulation in the liver, and inflammation and fibrosis were produced. Artemisinin was given at a dosage of 100 mg/kg from the 13th week as a treatment for 12 weeks. At the end of the experiment, the mice were dissected to obtain livers. A part of the livers was subjected to HE staining and Oli red O staining to quantify the liver lipids and conduct a pathological scoring of liver steatosis of the mice based on the steatosis activity fibrosis (SAF) scoring system.

[2] = system: C57 mice fed with 10% lard and 5% fructose; test: Serum enzyme detection in mice on high-fat and high-sugar diet; format: in vivo; details: artemisinin 100 mg/kg for 12 weeks, vs high-fat diet
Method: as §1, with “system. […] The serum of each group of mice mentioned above was taken and subjected to serum enzyme detection.” for “system.”

[3] = system: C57 mice fed with 10% lard and 5% fructose; test: Expression of lipid metabolism-related genes in liver tissue of mice on high-fat and high-sugar diet; format: in vivo; details: artemisinin 100 mg/kg for 12 weeks, FIGS. 10A-10I
Method: as §1, with “system. […] A part of the livers of the mice in each group mentioned above was taken, RNA and protein were extracted, and the study of the expression of related genes and proteins was conducted to detect the expression levels of lipid metabolism-related genes in liver tissue.” for “system.”

[4] = system: C57 mice fed with 10% lard and 5% fructose; test: Expression of autophagy-related proteins (TOR, LC3) in liver of mice on high-fat and high-sugar diet; format: in vivo; details: artemisinin 100 mg/kg for 12 weeks, FIGS. 11A-11G
Method: as §1
A part of the livers of the mice in each group mentioned above was taken, RNA and protein were extracted, and the study of the expression of related genes and proteins was conducted to detect the expression levels of lipid metabolism-related genes in liver tissue.
Target of rapamycin (TOR) is a key protein in the control of autophagy, which can sense various change signals of cells and strengthen or reduce the occurrence level of autophagy.

HepG2 liver cancer cells [5] = test: Lipid accumulation (triglyceride content, Nile red lipid droplets) in FFA-treated HepG2 liver cancer cells; format: cell-based, human; details: 1 mM/L FFA, 5 μM/L artesunate, 24 h, vs model group
HepG2 liver cancer cells [6] = test: qRT-PCR expression of CIDE, AMPK pathway and PPAR pathway genes in FFA-treated HepG2 cells; format: cell-based, human; details: 1 mM/L FFA, 5 μM/L artesunate, 24 h
Method: Experimental methods: HepG-2 liver cancer cells with passage times less than 20 times were selected and inoculated into a 12-well plate at a density of 3×10^5 cells/mL. Drug treatment was performed after inoculating for 24 h, and the cells were divided into 3 groups with 4 wells in each group. A complete medium containing 1% bovine serum albumin (BSA) was used as the control group. A complete medium containing 1% BSA and 1 mM/L FFA was used as the high-fat model group. A complete medium containing 1% BSA, 1 mM/L FFA, and 5 μM/L, artesunate was used as the artesunate group. After being treated for 24 h, the cells were collected, and RNA was extracted and reverse-transcribed into cDNA. Quantitative real-time PCR (qRT-PCR) was used to detect the expression of CIDE series genes. AMPK signaling pathway-related genes, and PPAR signaling pathway-related genes in the three groups of cells.

[7] = vs model group, p<0.001, FIG. 7

Row | Compound | score of lobular inflammation (SAF scoring system) ([1]; artemisinin 100 mg/kg for 12 weeks, FIG. 9C) | score of ballooning of liver cells (SAF scoring system) ([1]; artemisinin 100 mg/kg for 12 weeks, FIG. 9D) | liver steatosis (fat blebs, Oil red O staining areas) ([1]; artemisinin 100 mg/kg from the 13th week for 12 weeks, FIG. 8) | ALT level in the serum ([2]; FIG. 9E) | AST level in the serum ([2]; FIG. 9F) | upstream gene expression levels of genes related to lipid synthesis in liver [3] | mitochondrial dysfunction and autophagy (mitophagy) level in liver [4] | content of triglyceride (TG) in HepG2 liver cancer cells (HepG2 liver cancer cells [5]; FIG. 1) | number of large lipid droplets (Nile red staining) (HepG2 liver cancer cells [5]; FIGS. 2A-2B) | expression of SREBP1c-ACC/SCD1/FAS genes related to intracellular fatty acid synthesis (HepG2 liver cancer cells [6]; FIG. 5) | mRNA level of PPARct. (HepG2 liver cancer cells [6]; [7]) | mRNA level of PPARy (HepG2 liver cancer cells [6]; [7]) | mRNA level of AMPKα (PRKAA1) (HepG2 liver cancer cells [6]; vs model group, p<0.01, FIG. 4) | mRNA level of carnitine palmitoyl transferase 1 (CPT-1) (HepG2 liver cancer cells [6]; vs model group, p<0.01, FIG. 6) | mRNA expression of Cide-a gene (HepG2 liver cancer cells [6]; vs model group, FIG. 3) | mRNA expression of Cide-b gene (HepG2 liver cancer cells [6]; vs model group, FIG. 3)
1 | C[C@@H]1CC[C@H]2[C@@H](C)C(=O)O[C@@H]3O[C@@]4(C)CC[C@@H]1[C@]32OO4 [artemisinin] | significantly reduced | significantly reduced | significantly improve liver steatosis | significantly reduce the elevation | significantly reduce the elevation | inhibited | effectively resist the mitochondrial dysfunction and the decrease in the autophagy level |  |  |  |  |  |  |  |  | 
2 | C[C@H]1[C@H](OC(=O)CCC(=O)O)O[C@@H]2O[C@@]3(C)CC[C@H]4[C@H](C)CC[C@@H]1[C@@]24OO3 [artesunate] |  |  |  |  |  |  |  | significantly decreased | decreased | reduce the expression | significantly up-regulated | significantly up-regulated | significantly up-regulated | significantly up-regulated | significantly lower | significantly lower

— US20230226018A1, “APPLICATION OF COMPOUND USING INTRA-CYCLIC PEROXO-BRIDGED SESQUITERPENES AS PARENT NUCLEUS IN METABOLISM-RELATED FATTY LIVER DISEASES” (SHANGHAI JIAO TONG UNIVERSITY, priority 2021, published 2023)
